Test results: ChEMBL document CHEMBL3400053, “trans-3,4-Disubstituted pyrrolidines as inhibitors of the human aspartyl protease renin. Part II: prime site exploration using an oxygen linker” (Bioorg Med Chem Lett, 2015)

Key:
Renin [1] = target: T1, Renin (Homo sapiens, UniProt P00797); test: Inhibition of human recombinant renin by TR-FRET assay
T1 sequence (P00797 whole entry): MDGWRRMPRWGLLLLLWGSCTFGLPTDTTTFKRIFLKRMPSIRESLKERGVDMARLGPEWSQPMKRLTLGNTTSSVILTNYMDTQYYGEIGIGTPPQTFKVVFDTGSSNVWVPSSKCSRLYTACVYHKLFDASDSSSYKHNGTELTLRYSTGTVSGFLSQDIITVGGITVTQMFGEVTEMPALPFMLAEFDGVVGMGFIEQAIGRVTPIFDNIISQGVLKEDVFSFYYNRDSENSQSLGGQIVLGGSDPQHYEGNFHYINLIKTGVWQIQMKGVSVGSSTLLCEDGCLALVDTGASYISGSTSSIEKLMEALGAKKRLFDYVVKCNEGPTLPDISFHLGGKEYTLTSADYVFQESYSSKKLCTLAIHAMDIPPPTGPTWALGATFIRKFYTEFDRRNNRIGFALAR

Rattus norvegicus = test: Reduction in mean arterial blood pressure in orally dosed hypertensive telemetered double-transgenic rat overexpressing human renin and angiotensinogen; format: functional, organism-based
Renin [2] = target: T1, Renin; test: Inhibition of human recombinant renin in presence of plasma by TR-FRET assay
[3] = Ratio of permeability from basolateral to apical to side over apical to basolateral side in human Caco2 cells; format: ADME, cell-based; details: caco-2
Cytochrome P450 3A4 = Cytochrome P450 3A4 (Homo sapiens, UniProt P08684); test: Inhibition of CYP3A4 (unknown origin) using 7-benzyl-4-trifluoromethylcoumarin as fluorometric substrate; format: ADME
Cytochrome P450 3A4, sequence (P08684 whole entry): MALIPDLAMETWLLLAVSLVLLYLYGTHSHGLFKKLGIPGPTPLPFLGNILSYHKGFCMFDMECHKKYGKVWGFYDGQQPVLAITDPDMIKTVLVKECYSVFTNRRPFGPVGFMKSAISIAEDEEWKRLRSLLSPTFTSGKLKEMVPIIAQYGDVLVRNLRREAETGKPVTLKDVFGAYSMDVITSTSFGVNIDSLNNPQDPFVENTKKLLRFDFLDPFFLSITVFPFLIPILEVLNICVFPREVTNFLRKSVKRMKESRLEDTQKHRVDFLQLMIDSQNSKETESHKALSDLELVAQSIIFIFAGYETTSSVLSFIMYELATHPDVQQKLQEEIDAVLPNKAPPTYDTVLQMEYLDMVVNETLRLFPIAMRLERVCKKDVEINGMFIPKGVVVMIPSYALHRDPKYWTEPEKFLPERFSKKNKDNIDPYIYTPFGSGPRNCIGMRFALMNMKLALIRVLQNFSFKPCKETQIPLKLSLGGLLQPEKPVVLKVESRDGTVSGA

| Structure (SMILES) | IC50 (Renin [1]) [nM] | also measured |
| --- | --- | --- |
| COCCCOc1cc(C(=O)N(C[C@H]2CNC[C@@H]2OC(=O)NCc2ccccc2)C(C)C)ccc1OC | 9200 |  |
| COCCCOc1cc(C(=O)N(C[C@@H]2CNC[C@H]2OC(=O)NCc2ccccc2)C(C)C)ccc1OC |  | inhibition (Rattus norvegicus): Dose-dependent effect |
| COCCCOc1cc(C(=O)N(C[C@@H]2CNC[C@H]2Oc2ccc(C(F)(F)F)cc2)C(C)C)ccc1OC (racemic) | 450 |  |
| COCCCOc1cc(C(=O)N(C[C@@H]2CNC[C@H]2OCc2ccccc2)C(C)C)ccc1OC (racemic) | 770 | IC50 (Renin [2]): 850 nM; Ratio [3]: 62 |
| COCCCOc1cc(C(=O)N(C[C@H]2CNC[C@H]2OCc2ccccc2)C(C)C)ccc1OC (racemic) | 3150 |  |
| COCCCOc1cc(C(=O)N(C[C@@H]2CNC[C@H]2OCc2cccc(OC)c2)C(C)C)ccc1OC (racemic) | 250 | IC50 (Cytochrome P450 3A4): ≤ 200 nM |
| COCCCOc1cc(C(=O)N(C[C@@H]2CNC[C@H]2OCc2cccc(Oc3ccccc3)c2)C(C)C)ccc1OC (racemic) | 250 |  |
| COCCCOc1cc(C(=O)N(C[C@@H]2CNC[C@H]2OCc2cccc(-c3cccc(OC)c3)c2)C(C)C)ccc1OC (racemic) | 350 |  |
| CCOc1ccccc1-c1cccc(CO[C@@H]2CNC[C@H]2CN(C(=O)c2ccc(OC)c(OCCCOC)c2)C(C)C)c1 (racemic) | 550 |  |
| COCCCOc1cc(C(=O)N(C[C@@H]2CNC[C@H]2OC(=O)Nc2cccc(OC)c2)C(C)C)ccc1OC (racemic) | 300 |  |
| COCCCOc1cc(C(=O)N(C[C@@H]2CNC[C@H]2OC(=O)N(C)Cc2ccccc2)C(C)C)ccc1OC (racemic) | 350 |  |
| COCCCOc1cc(C(=O)N(C[C@@H]2CNC[C@H]2OC(=O)N2CCCC2)C(C)C)ccc1OC (racemic) | 1150 |  |

More lines, main results first:

| IC50 (Renin [1]) [nM] | Structure (SMILES) | also measured |
| --- | --- | --- |
| 145 | COCCCOc1cc(C(=O)N(C[C@@H]2CNC[C@H]2OCc2cccc(-c3ccccc3)c2)C(C)C)ccc1OC (racemic) | IC50 (Renin [2]): 1100 nM; IC50 (Cytochrome P450 3A4): ≤ 200 nM |
| 85 | COCCCOc1cc(C(=O)N(C[C@@H]2CNC[C@H]2OCc2cccc(-n3cccc3)c2)C(C)C)ccc1OC (racemic) | IC50 (Cytochrome P450 3A4): ≤ 200 nM |
| 65 | COCCCOc1cc(C(=O)N(C[C@@H]2CNC[C@H]2OCc2cccc(-c3cccc(C)c3)c2)C(C)C)ccc1OC (racemic) |  |
| 65 | COCCCOc1cc(C(=O)N(C[C@@H]2CNC[C@H]2OCc2cccc(-c3ccccc3OC)c2)C(C)C)ccc1OC (racemic) |  |
| 200 | COCCCOc1cc(C(=O)N(C[C@@H]2CNC[C@H]2OCc2cccc3ccccc23)C(C)C)ccc1OC (racemic) |  |
| 90 | COCCCOc1cc(C(=O)N(C[C@@H]2CNC[C@H]2OCc2ccc3ccccc3c2)C(C)C)ccc1OC (racemic) |  |
| 80 | COCCCOc1cc(C(=O)N(C[C@@H]2CNC[C@H]2OC(=O)NCc2ccccc2)C(C)C)ccc1OC (racemic) |  |
| 90 | COCCCOc1cc(C(=O)N(C[C@@H]2CNC[C@H]2OC(=O)NCc2ccco2)C(C)C)ccc1OC (racemic) |  |
| 100 | COCCCOc1cc(C(=O)N(C[C@@H]2CNC[C@H]2OC(=O)NCc2nccs2)C(C)C)ccc1OC (racemic) |  |
| 45 | COCCCOc1cc(C(=O)N(C[C@@H]2CNC[C@H]2OC(=O)N(C)Cc2cccc3ccccc23)C(C)C)ccc1OC (racemic) | IC50 (Renin [2]): 35 nM |
| 20 | COCCCOc1cc(C(=O)N(C[C@@H]2CNC[C@H]2OC(=O)N(C)Cc2cccc3c2OCO3)C(C)C)ccc1OC (racemic) |  |
| 30 | COCCCOc1cc(C(=O)N(C[C@@H]2CNC[C@H]2OC(=O)N(C)Cc2nc3ccccc3s2)C(C)C)ccc1OC (racemic) |  |
| 9 | COCCCOc1cc(C(=O)N(C[C@@H]2CNC[C@H]2OC(=O)N(C)Cc2ccccc2-n2cccc2)C(C)C)ccc1OC (racemic) |  |
| 80 | COCCCOc1cc(C(=O)N(C[C@@H]2CNC[C@H]2OC(=O)N(C)Cc2ccccc2N2CCCC2)C(C)C)ccc1OC (racemic) |  |
